{"source": "patent US20090093517A1", "about": "“BIS1,2,3,4-TETRAHYDROISOQUINOLINE DERIVATIVES AND THEIR USES AS PHARMACEUTICALS” (UNIVERSITE DE LIEGE, priority 2006, published 2009)", "biological_target": "apamin-sensitive sites of the SK channels", "assay": "Competition binding between 125I-apamin and bis-tetrahydroisoquinoline derivatives on rat cortical synaptosomes", "conditions": "for Ki: separated stereoisomers, rat cortical apamin sensitive sites, 125I-apamin; for % of 125I-apamin displaced at 10 μM: 10 μM compound, ±10 pM 125I-apamin, rat cortical synaptosomes, 1 h at 0° C.; for Ki / potential to interact with apamin-sensitive sites compared with NML: comparison in words with N-Methyl-Laudanosine", "description": "These experiments are used to evaluate the potency of the bis-tetrahydroisoquinoline derivatives to interact with the apamin-sensitive sites of the SK channels, the selected target for which a blockade is expected to be useful in the treatment of Alzheimer's disease, Parkinson's disease, schizophrenia, cognitive dysfunction, or depression. Two reference compounds are also tested for comparison\nRats (male Wistar, ±250 g) were killed by decapitation and the brains were quickly removed and kept on ice during dissection. Crude cortex was dispersed in 0.32 M sucrose by using a Pottero homogenizer. After a first centrifugation at 1500×g for 10 min, the supernatant was centrifuged at 25000×g for 10 min. The resulting pellet was dispersed in 5 mL 0.32 M sucrose to be aliquoted. Protein concentration was determined by the method of Hartree with bovine serum albumin as a standard.^36\nThe buffer consisted of a 10 mM Tris-HCl (pH 7.5) solution containing 5.4 mM KCl and 0.1% bovine serum albumin. The radioligand was ^125I-apamin (Perkin-Elmer, Specific activity 81.4 TBq mmol^−1). Glass fibre filters (Whatman GF/C) used in these experiments were coated for 1 h in 0.5% polyethylenimine and then washed with 2.5 mL of the ice-cold buffer just before use. Binding experiments were always terminated as follows. Aliquots were filtered under reduced pressure through Whatman filters. Filters were rapidly washed twice with 2.5 mL of buffer. The radioactivity remaining on the filter was evaluated with a Packard Tri-Carb 1600TR liquid scintillation analyser with an efficacy of 69%. ^125I-apamin binding to the filters was also estimated in the absence of synaptosomes. This binding was also substracted from the total binding. Curve fitting was carried out using GraphPad Prism.\nSaturation Binding Experiments—Synaptosomes (0.2 mg of protein/mL) were incubated with increasing concentrations of ^125I-apamin (25 μL) with 975 μL of incubation buffer for 1 h at 0° C. Samples were then filtered on Whatman GF/C filter and the radioactivity was measured as described above. Non specific binding was determined in parallel experiments in the presence of an excess of unlabeled apamin (0.1 μM) and subtracted from the total binding to obtain the specific binding.\nCompetition Experiments between ^125I-apamin and Bis-tetrahydroisoquinoline derivatives—Synaptosomes (0.2 mg of protein/mL) were incubated for 1 h at 0° C. with ±10 pM of ^125I-apamin (25 μL) and nine concentrations of bis-tetrahydroisoquinoline derivatives (10^−4 to 10^−7 M). Non specific binding was determined in the presence of an excess of unlabeled apamin (0.1 μM). Samples were then filtered on Whatman filter and the radioactivity was measured as described above.", "note": "Where a name gives a salt, the structure may show the parent alone.", "data": [{"molecule": "COc1cc2c(cc1OC)[C@@H](CCC[C@H]1c3cc(OC)c(OC)cc3CCN1C)N(C)CC2", "note": "[Compound 4d MESO, 1,3-bis[1-(6,7-dimethoxy-2-methyl-1,2,3,4-tetrahydroisoquinolyl)]-propane hydrochloride]", "values": [{"measurement": "Ki", "value": "1.42 ± 0.116", "unit": "µM"}]}, {"molecule": "COc1cc2c(cc1OC)[C@@H](Cc1ccc(C[C@H]3c4cc(OC)c(OC)cc4CCN3C)cc1)N(C)CC2", "note": "[Compound 4n MESO]", "values": [{"measurement": "Ki", "value": "0.566 ± 0.026", "unit": "µM"}]}, {"molecule": "CN1CCc2ccccc2C1CCCC1c2ccccc2CCN1C.Cl", "note": "(stereo not shown) [Compound 4a, 1,3-bis[1-(2-methyl-1,2,3,4-tetrahydrolisoquinolyl)]-propane hydrochloride]", "values": [{"measurement": "% of 125I-apamin displaced at 10 μM", "value": 13, "unit": "%"}]}, {"molecule": "m-Bis[1-(2-methyl-1,2,3,4-tetrahydroisoquinolyl)]-xylene hydrochloride [Compound 4k]", "values": [{"measurement": "% of 125I-apamin displaced at 10 μM", "value": 29, "unit": "%"}]}, {"molecule": "COc1cc2c(c(OC)c1OC)C(CCCCC1c3c(cc(OC)c(OC)c3OC)CCN1C)N(C)CC2", "note": "(stereo not shown) [Compound 4h E1, 1,4-bis[1-(6,7,8-trimethoxy-2-methyl-1,2,3,4-tetrahydroisoquinolyl)]-butane hydrochloride]", "values": [{"measurement": "Ki", "setting": "listed as 4h E1, hydrochloride", "value": "2.21 ± 0.156", "unit": "µM"}]}, {"molecule": "COc1cc2c(cc1OC)C(Cc1cccc(CC3c4cc(OC)c(OC)cc4CCN3C)c1)N(C)CC2", "note": "(stereo not shown) [Compound 4m E1]", "values": [{"measurement": "Ki", "setting": "listed as 4m E1", "value": "1.28 ± 0.055", "unit": "µM"}]}, {"molecule": "COc1cc2c(cc1OC)C(CCCCCC1c3cc(OC)c(OC)cc3CCN1C)N(C)CC2", "note": "(stereo not drawn) [Compound 4f MESO, 1,5-bis[1-(6,7-dimethoxy-2-methyl-1,2,3,4-tetrahydroisoquinolyl)]-pentane hydrochloride]", "values": [{"measurement": "Ki", "setting": "listed as 4f MESO, hydrochloride", "value": "0.731 ± 0.063", "unit": "µM"}]}, {"molecule": "CN1CCc2ccccc2C1CCCCCC1c2ccccc2CCN1C.Cl", "note": "(stereo not shown) [Compound 4c, 1,5-bis[1-(2-methyl-1,2,3,4-tetrahydroisoquinolyl)]-pentane hydrochloride]", "values": [{"measurement": "% of 125I-apamin displaced at 10 μM", "value": 9, "unit": "%"}]}, {"molecule": "COc1cc2c(c(OC)c1OC)C(CCCC1c3c(cc(OC)c(OC)c3OC)CCN1C)N(C)CC2.Cl", "note": "(stereo not shown) [Compound 4g, 1,3-bis[1-(6,7,8-trimethoxy-2-methyl-1,2,3,4-tetrahydroisoquinolyl)]-propane hydrochloride]", "values": [{"measurement": "% of 125I-apamin displaced at 10 μM", "value": 70, "unit": "%"}]}, {"molecule": "Cc1cc(N)c2ccccc2[n+]1CCCCCCCCCC[n+]1c(C)cc(N)c2ccccc21", "note": "[DQ+, Dequalinium, reference compound]", "values": [{"measurement": "Ki", "value": "0.221 ± 0.011", "unit": "µM"}]}, {"molecule": "COc1cc2c(cc1OC)C(CCCCC1c3cc(OC)c(OC)cc3CCN1C)N(C)CC2.Cl", "note": "(stereo not shown) [Compound 4e E1, 1,4-bis[1-(6,7-dimethoxy-2-methyl-1,2,3,4-tetrahydroisoquinolyl)]-butane hydrochloride]", "values": [{"measurement": "Ki / potential to interact with apamin-sensitive sites compared with NML", "value": "Ki superior to NML"}, {"measurement": "Ki", "setting": "listed as 4e E1, hydrochloride", "value": "0.588 ± 0.072", "unit": "µM"}]}, {"molecule": "COc1cc2c(c(OC)c1OC)C(CCCCC1c3c(cc(OC)c(OC)c3OC)CCN1C)N(C)CC2.Cl", "note": "(stereo not drawn) [Compound 4h MESO, 1,4-bis[1-(6,7,8-trimethoxy-2-methyl-1,2,3,4-tetrahydroisoquinolyl)]-butane hydrochloride]", "values": [{"measurement": "Ki / potential to interact with apamin-sensitive sites compared with NML", "value": "Ki superior to NML"}, {"measurement": "Ki", "setting": "listed as 4h MESO, hydrochloride", "value": "0.424 ± 0.033", "unit": "µM"}]}, {"molecule": "CN1CCc2ccccc2C1CCCCC1c2ccccc2CCN1C.Cl", "note": "(stereo not shown) [Compound 4b, 1,4-bis[1-(2-methyl-1,2,3,4-tetrahydroisoquinolyl)]-butane hydrochloride]", "values": [{"measurement": "% of 125I-apamin displaced at 10 μM", "value": 16, "unit": "%"}]}, {"molecule": "p-bis[1-(2-methyl-1,2,3,4-tetrahydroisoquinolyl)]-xylene hydrochloride [Compound 4l]", "values": [{"measurement": "% of 125I-apamin displaced at 10 μM", "value": 27, "unit": "%"}]}, {"molecule": "o-bis[1-(6,7,8-trimethoxy-2-methyl-1,2,3,4-tetrahydroisoquinolyl)]-xylene hydrochloride [Compound 4p]", "values": [{"measurement": "% of 125I-apamin displaced at 10 μM", "value": 28, "unit": "%"}]}, {"molecule": "COc1cc2c(cc1OC)C(CCCCCC1c3cc(OC)c(OC)cc3CCN1C)N(C)CC2.Cl", "note": "(stereo not shown) [Compound 4f, 1,5-bis[1-(6,7-dimethoxy-2-methyl-1,2,3,4-tetrahydroisoquinolyl)]-pentane hydrochloride]", "values": [{"measurement": "% of 125I-apamin displaced at 10 μM", "value": 78, "unit": "%"}]}, {"molecule": "COc1cc2c(c(OC)c1OC)[C@@H](CCC[C@H]1c3c(cc(OC)c(OC)c3OC)CCN1C)N(C)CC2", "note": "[Compound 4g MESO, 1,3-bis[1-(6,7,8-trimethoxy-2-methyl-1,2,3,4-tetrahydroisoquinolyl)]-propane hydrochloride]", "values": [{"measurement": "Ki", "value": "1.67 ± 0.077", "unit": "µM"}]}, {"molecule": "COc1cc2c(cc1OC)C(CCCC1c3cc(OC)c(OC)cc3CCN1C)N(C)CC2", "note": "(stereo not shown) [Compound 4d E2, 1,3-bis[1-(6,7-dimethoxy-2-methyl-1,2,3,4-tetrahydroisoquinolyl)]-propane hydrochloride]", "values": [{"measurement": "Ki", "setting": "listed as 4d E2, hydrochloride", "value": "1.89 ± 0.105", "unit": "µM"}]}, {"molecule": "COc1cc2c(c(OC)c1OC)C(CCCC1c3c(cc(OC)c(OC)c3OC)CCN1C)N(C)CC2", "note": "(stereo not shown) [Compound 4g E2, 1,3-bis[1-(6,7,8-trimethoxy-2-methyl-1,2,3,4-tetrahydroisoquinolyl)]-propane hydrochloride]", "values": [{"measurement": "Ki", "setting": "listed as 4g E2, hydrochloride", "value": "1.1 ± 0.103", "unit": "µM"}]}, {"molecule": "o-bis[1-(6,7-dimethoxy-2-methyl-1,2,3,4-tetrahydroisoquinolyl)]-xylene hydrochloride [Compound 4m]", "values": [{"measurement": "% of 125I-apamin displaced at 10 μM", "value": 62, "unit": "%"}]}, {"molecule": "p-bis[1-(6,7,8-trimethoxy-2-methyl-1,2,3,4-tetrahydroisoquinolyl)]-xylene [Compound 4r]", "values": [{"measurement": "% of 125I-apamin displaced at 10 μM", "value": 51, "unit": "%"}]}, {"molecule": "COc1cc2c(c(OC)c1OC)C(CCCC1c3c(cc(OC)c(OC)c3OC)CCN1C)N(C)CC2", "note": "(stereo not shown) [Compound 4g E1, 1,3-bis[1-(6,7,8-trimethoxy-2-methyl-1,2,3,4-tetrahydroisoquinolyl)]-propane hydrochloride]", "values": [{"measurement": "Ki", "setting": "listed as 4g E1, hydrochloride", "value": "1.74 ± 0.195", "unit": "µM"}]}, {"molecule": "COc1cc2c(cc1OC)C(CCCCC1c3cc(OC)c(OC)cc3CCN1C)N(C)CC2", "note": "(stereo not shown) [Compound 4e E2, 1,4-bis[1-(6,7-dimethoxy-2-methyl-1,2,3,4-tetrahydroisoquinolyl)]-butane hydrochloride]", "values": [{"measurement": "Ki", "setting": "listed as 4e E2, hydrochloride", "value": "1.2 ± 0.114", "unit": "µM"}]}, {"molecule": "COc1cc2c(cc1OC)C(CCCCCC1c3cc(OC)c(OC)cc3CCN1C)N(C)CC2.Cl", "note": "(stereo not shown) [Compound 4f E1, 1,5-bis[1-(6,7-dimethoxy-2-methyl-1,2,3,4-tetrahydroisoquinolyl)]-pentane hydrochloride]", "values": [{"measurement": "Ki / potential to interact with apamin-sensitive sites compared with NML", "value": "Ki superior to NML"}, {"measurement": "Ki", "setting": "listed as 4f E1, hydrochloride", "value": "0.592 ± 0.014", "unit": "µM"}]}, {"molecule": "COc1cc2c(cc1OC)C(Cc1cccc(CC3c4cc(OC)c(OC)cc4CCN3C)c1)N(C)CC2", "note": "(stereo not shown) [Compound 4m E2]", "values": [{"measurement": "Ki", "setting": "listed as 4m E2", "value": "1.02 ± 0.027", "unit": "µM"}]}, {"molecule": "m-bis[1-(6,7,8-trimethoxy-2-methyl-1,2,3,4-tetrahydroisoquinolyl)]-xylene hydrochloride [Compound 4q]", "values": [{"measurement": "% of 125I-apamin displaced at 10 μM", "value": 60, "unit": "%"}]}, {"molecule": "COc1cc2c(cc1OC)C(CCCCC1c3cc(OC)c(OC)cc3CCN1C)N(C)CC2.Cl", "note": "(stereo not shown) [Compound 4e, 1,4-bis[1-(6,7-dimethoxy-2-methyl-1,2,3,4-tetrahydroisoquinolyl)]-butane hydrochloride]", "values": [{"measurement": "% of 125I-apamin displaced at 10 μM", "value": 72, "unit": "%"}]}, {"molecule": "COc1cc2c(cc1OC)C(Cc1ccc(CC3c4cc(OC)c(OC)cc4CCN3C)cc1)N(C)CC2", "note": "(stereo not shown) [Compound 4o, p-bis[1-(6,7-dimethoxy-2-methyl-1,2,3,4-tetrahydroisoquinolyl)]-xylene]", "values": [{"measurement": "% of 125I-apamin displaced at 10 μM", "value": 90, "unit": "%"}]}, {"molecule": "o-bis[1-(2-methyl-1,2,3,4-tetrahydroisoquinolyl)]-xylene hydrochloride [Compound 4j]", "values": [{"measurement": "% of 125I-apamin displaced at 10 μM", "value": 19, "unit": "%"}]}, {"molecule": "m-bis[1-(6,7-dimethoxy-2-methyl-1,2,3,4-tetrahydroisoquinolyl)]-xylene hydrochloride [Compound 4n]", "values": [{"measurement": "% of 125I-apamin displaced at 10 μM", "value": 74, "unit": "%"}]}, {"molecule": "COc1cc2c(cc1OC)C(CCCC1c3cc(OC)c(OC)cc3CCN1C)N(C)CC2.Cl", "note": "(stereo not shown) [Compound 4d, 1,3-bis[1-(6,7-dimethoxy-2-methyl-1,2,3,4-tetrahydroisoquinolyl)]-propane hydrochloride]", "values": [{"measurement": "% of 125I-apamin displaced at 10 μM", "value": 82, "unit": "%"}]}]}
